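Method: 48-hour compound exposure of cells in 96-well plates, five concentrations, linear interpolation of endpoints. At the GI50, growth is halved.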 Active and inactive are the calls of the source. Cut-off read from the data, not from the text of the source: active = GI50 up to about 1.1 µM and inactive = higher.
Key:
Test in all cases: NCI tumour cell line growth inhibition, 48 h
OVCAR-3 = system: OVCAR-3
A498 = system: A498
SNB-19 = system: SNB-19
SF-295 = system: SF-295
OVCAR-4 = system: OVCAR-4
SF-268 = system: SF-268
IGROV-1 = system: IGROV-1
UACC-257 = system: UACC-257
SR = system: SR
HL-60 = system: HL-60
CAKI-1 = system: CAKI-1
SNB-75 = system: SNB-75
SK-OV-3 = system: SK-OV-3
A549 = system: A549
HCT-116 = system: HCT-116
ACHN = system: ACHN

Measured: GI50

COC(=O)c1cc(C(=O)OC)c(CC(=O)C(=O)NC2C3CC4CC(C3)CC2C4)nc1CC(=O)C(=O)NC1C2CC3CC(C2)CC1C3 (stereo not given)
inactive: OVCAR-3 > 100 µM | A498 > 100 µM | SNB-19 > 100 µM | SF-295 > 100 µM | OVCAR-4 > 100 µM | SF-268 > 100 µM | IGROV-1 > 100 µM | UACC-257 > 100 µM | SR 8.69 µM | HL-60 > 100 µM | CAKI-1 > 100 µM | SNB-75 > 100 µM | SK-OV-3 > 100 µM | A549 > 100 µM | HCT-116 > 100 µM | ACHN > 100 µM

Cc1csc2nc(-c3ccncc3)cn12
inactive: OVCAR-3 > 100 µM | A498 > 100 µM | SNB-19 > 100 µM | SF-295 > 100 µM | OVCAR-4 > 49.4 µM | SF-268 > 69.7 µM | IGROV-1 > 100 µM | UACC-257 > 100 µM | SR 24.3 µM | HL-60 > 36.3 µM | CAKI-1 > 100 µM | SNB-75 > 100 µM | SK-OV-3 > 100 µM | A549 > 100 µM | HCT-116 > 42.2 µM | ACHN > 100 µM

O=C1NC(c2ccc(O)cc2)C2CCC1C2 (stereo not given)
inactive: OVCAR-3 > 100 µM | A498 > 100 µM | SNB-19 > 100 µM | SF-295 > 100 µM | OVCAR-4 > 100 µM | SF-268 > 100 µM | IGROV-1 > 100 µM | UACC-257 > 100 µM | SR > 100 µM | HL-60 > 100 µM | CAKI-1 > 100 µM | SNB-75 > 100 µM | SK-OV-3 > 100 µM | A549 > 100 µM | HCT-116 > 100 µM | ACHN > 100 µM

N#Cc1cc([N+](=O)[O-])ccc1NC(=O)C(F)(F)F
inactive: OVCAR-3 > 100 µM | A498 > 100 µM | SNB-19 > 100 µM | SF-295 > 100 µM | OVCAR-4 > 100 µM | SF-268 > 100 µM | IGROV-1 > 100 µM | UACC-257 > 100 µM | SR > 100 µM | HL-60 > 57.1 µM | CAKI-1 > 100 µM | SNB-75 > 49.7 µM | SK-OV-3 > 100 µM | A549 > 74.3 µM | HCT-116 > 42.9 µM | ACHN > 100 µM

COc1ccc(C2Oc3c(c(O)cc4c3[C@H](c3ccc(O)cc3O)[C@H](O)C(c3ccc(O)c(O)c3)O4)C[C@@H]2O)cc1O (stereo not given in full)
inactive: OVCAR-3 > 100 µM | A498 > 100 µM | SNB-19 > 100 µM | SF-295 > 100 µM | OVCAR-4 > 100 µM | SF-268 > 100 µM | IGROV-1 > 100 µM | UACC-257 > 100 µM | SR > 100 µM | HL-60 > 100 µM | CAKI-1 > 100 µM | SNB-75 > 100 µM | SK-OV-3 > 100 µM | A549 > 100 µM | HCT-116 > 100 µM | ACHN > 100 µM

Reference: ChEMBL document CHEMBL1201862, “PubChem BioAssay data set” (2004)
